Laboratory results from patent publication US8591966B2, “Composition containing oils of chamomile flower and black cumin with reduced endotoxins” (Insignion Holdings Limited, priority 2007, dated 2013).
Where two headings read alike, the source gives them in different places.

Tests used:
Format in all cases: cell-based
[1] = tested on: glioblastoma cells U-87 MG; assay: DNA synthesis (3H-thymidine incorporation) in U-87MG; conditions: Homo sapiens, 48 h incubation
Experimental: (§1) ^3H-Thymidine incorporation: DU145 and U-87MG cells were harvested by trypsinisation and seeded at 10,000 cells/well in a 96 well plate. The cells were incubated with the samples at the required concentrations for 24 hrs and/or 48 hrs at 37° C. and 5% CO2. The cells were pulsed with ^3H-Thymidine (1 μCi/ml) (Perkin Elmer) for 24 hours. After which, they were washed with PBS and fixed twice with methanol for 5 min. The protein was precipitated by 0.3N TCA. After a washing step 150 μl 0.3N NaOH was added for 15 min to lyse the cells. Back ground controls were measured with the samples without cells.
(§2) To detect the incorporated ^3H-Thymidine for the DNA synthesis the samples were transferred in scintillation tubes with scintillation cocktail. The quantification was performed in a Tri-Carb 1900 TR liquid scintillation counter (Packard, USA).
(§3) The effect of several concentrations of samples was measured by determining amount of radiolabel (dpm) under the assay conditions. Dose related values were expressed as a percentage of the positive control values. Sample points were measured as quadruplicates, errors are expressed as standard deviations.

[2] = tested on: prostate cancer cells DU145; assay: DNA synthesis (3H-thymidine incorporation) in DU145; conditions: Homo sapiens, DU-145
Experimental: as §1, §2, §3

[3] = target: T1, 5-LOX (Homo sapiens, UniProt P09917); assay: 5-LOX inhibition assay (LTB4) in differentiated HL-60 granulocytes; conditions: reference listed under the 5-LOX IC50 table
T1 construct: endogenous in cells; host or cells: HL-60 (human myeloid leukemia, DSMZ ACC 3), differentiated with DMSO
T1 sequence (P09917 1-674): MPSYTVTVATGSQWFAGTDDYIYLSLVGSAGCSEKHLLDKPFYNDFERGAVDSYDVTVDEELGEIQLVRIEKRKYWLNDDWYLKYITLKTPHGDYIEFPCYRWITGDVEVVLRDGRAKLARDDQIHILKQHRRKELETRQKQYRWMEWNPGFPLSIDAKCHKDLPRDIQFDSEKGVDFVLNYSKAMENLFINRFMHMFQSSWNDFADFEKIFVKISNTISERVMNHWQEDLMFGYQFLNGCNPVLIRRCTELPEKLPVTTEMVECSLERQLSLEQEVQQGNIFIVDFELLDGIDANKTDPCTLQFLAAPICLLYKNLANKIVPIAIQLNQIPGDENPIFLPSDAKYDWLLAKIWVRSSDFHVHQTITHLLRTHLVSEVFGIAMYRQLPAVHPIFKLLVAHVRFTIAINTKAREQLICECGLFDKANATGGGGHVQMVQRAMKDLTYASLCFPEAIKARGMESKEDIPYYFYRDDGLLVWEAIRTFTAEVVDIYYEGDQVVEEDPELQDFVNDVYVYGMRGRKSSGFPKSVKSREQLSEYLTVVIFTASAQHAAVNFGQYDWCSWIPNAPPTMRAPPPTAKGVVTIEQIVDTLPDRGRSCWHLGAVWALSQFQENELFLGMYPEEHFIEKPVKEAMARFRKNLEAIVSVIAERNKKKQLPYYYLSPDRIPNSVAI
Experimental: Human HL-60 cells (myeloid leukemia, DSMZ No ACC 3) were kept at 37° C. in a humidified atmosphere with 5% CO2 and cultured in complete RPMI1640 medium supplemented with 10% fetal calf serum and 1% (v/v) penicillin/streptomycin solution. Cells were differentiated for 6 to 8 days with DMSO (1.2% v/v). The 5-LOX activity assay was carried out as described by Bennet et al. [ref: 2]. Briefly, differentiated cells were harvested, suspended in PBS containing Ca^2+ (1 mM) and glucose (1 mM) and distributed into a 96-well microtiter plate (1×10^6 cells/well).
After preincubation with sample or vehicle for 15 min at room temperature the reaction was started by adding calcium ionophore A 23187 (5 uM) and arachidonic acid (10 uM). All values are final concentrations. […] After neutralization with 50 μl PBS and centrifugation (340×g) for 10 min the LTB4 concentration in the supernatant was determined.
Effects of samples and reference compound [ref: 3] on the activity of 5-LOX were measured by determining the quantity of leukotriene B4 produced under assay conditions. The quantification of leukotriene B4 was performed with Enzyme Immuno Assay (EIA) Kit from Cayman No 520111 (LTB4). The optical densities were measured at wavelength=415 nm. The quantities were calculated using a standard curve of at least 5 different concentrations. Sample points were measured as duplicates. […]

Row | IC50 [3] [nM] | Compound | IC50 [1] [nM] | IC50 ([2]; DU145, 24 h incubation, read-out: IC50 (nM) on DNA synthesis, 24 h incubation) [nM] | IC50 ([2]; DU145, 48 h incubation, read-out: IC50 (nM) on DNA synthesis, 48 h incubation) [nM]
1 |  | CC[C@@]1(O)C(=O)OCc2c1cc1n(c2=O)Cc2cc3ccccc3nc2-1 [Camptothecin] | 3.32 | 152 | 7.5
2 | 0.28 | C[C@@H]1C[C@H]2[C@@H]3CCC4=CC(=O)C=C[C@]4(C)[C@@]3(F)[C@@H](O)C[C@]2(C)[C@@]1(O)C(=O)CO [Dexamethasone] |  |  | 
